{
  "source": "paper PMC3564010",
  "about": "“Exposure to Acetylcholinesterase Inhibitors Alters the Physiology and Motor Function of Honeybees” (Frontiers in Physiology, 2013)",
  "test_system": "T1, AChE (honeybee gut lysate)",
  "T1 construct": "gene AChE-1; total AChE activity",
  "assay": "Ellman assay, […] nm, Hill fit",
  "type": "biochemical, Apis mellifera mellifera",
  "details": "gut homogenate; […] min incubation; […] acetylthiocholine iodide, […] DTNB; PBS",
  "data": [
    {"smiles": "COc1cc2c(cc1OC)C(=O)C(CC1CCN(Cc3ccccc3)CC1)C2", "note": "(stereo not shown) [Donepezil]", "values": [
      {"measurement": "IC50", "value": "0.115 ± 0.00586", "unit": "µM"}
    ]}
  ]
}
